In data set [1] the test system is L. monocytogenes. Particulars: cited from earlier work.
In data set [2] the test system is L. monocytogenes-induced cytotoxicity in Caco-2 cells. The data set is described as follows: LDH release assay of infected Caco-2 cells. Type of data set: cell-based, Listeria monocytogenes. To be noted: all phloretin-treated groups vs infected untreated control; 5 h, MOI 100. As to the method:
(§1) The Caco-2 cell line was maintained in RPMI-1640 medium with 10% fetal bovine serum, non-essential amino acids and antibiotics in a humidified atmosphere at 37°C with 5% CO2. The cells were routinely adjusted to a concentration of 3 × 10^5 cells per ml, seeded into 24-well plastic culture microplates (3 × 10^5 per microplate) and cultured for 48 h for immunostaining and the determination of intracellular bacterial growth. To assay LDH release, cell monolayers were incubated overnight in culture medium without antibiotics in 96-well plates (2 × 10^4 cells per well).
Caco-2 cells grown in 96-well microplates were infected with L. monocytogenes pre-exposed or not to phloretin at a multiplicity of infection (MOI) of 100. Following infections with discriminatory concentrations of phloretin for 5 h, the LDH released into the supernatants of the co-culture system was determined using a Cytotoxicity Detection Kit (LDH; Roche, Basel, Switzerland) as previously described (Wang et al., [2015a]).
(In general: LDH leaks from cells whose membrane has failed.)

For data set [3], the system named is L. monocytogenes invasion into Caco-2 cells. The data set is described as follows: L. monocytogenes invasion into Caco-2 cells (CFU assay, immunostaining). Particulars: EGDeΔsrtA co-treated or pre-treated with phloretin; Caco-2, 1 h. In kind it is cell-based, Listeria monocytogenes. As to the method:
as §1
Caco-2 cells were co-cultured with L. monocytogenes at an MOI of 100. […] In each case, gentamicin (20 μg/ml) was added 30 min after bacterial internalization.
A 0.3% concentration of Triton X-100 was added to permeabilize the cells for 4 min prior to stain the total bacteria (intracellular + extracellular) with a rabbit L. monocytogenes-specific antibody (Abcam) and an Alexa Fluor 488-conjugated chicken anti-rabbit antibody (Molecular Probes).

Data set [4] relates to LLO. Type of data set: cell-based, Listeria monocytogenes.
The test system of data set [5] is Caco-2 cells. The data set is described as follows: Cytotoxicity of phloretin in Caco-2 cells. In kind it is cell-based. Particulars: phloretin treatment alone.
Data set [6] concerns the target T1, listeriolysin O (LLO) (Listeria monocytogenes serovar 1/2a, UniProt P13128).
T1 construct: endogenous in cells; host or cells: L. monocytogenes EGDe wild-type strain BUG 1600
Nature of the data set: Hemolysis assay of L. monocytogenes culture supernatants. In kind it is cell-based. As for the experimental part:
Overnight cultures of EGDe were enlarged and cultured into fresh TSB (1:100) at 37°C for 2 h with shaking and then treated with various concentrations of phloretin until the optical density (OD) at 600 nm reached 2.0, at which point they were harvested (8000 g, 5 min). The bacterial culture supernatants were incubated with rabbit erythrocytes (final concentration of 2.5%) in PBS (35 mM Na3PO4, 125 mM NaCl, 0.5 mg/mL BSA, pH 5.5) at 37°C for 30 min, and then the hemolytic activity of each sample was determined by measuring the release of hemoglobin in supernatants at an OD of 543 nm after centrifugation (8000 g, 1 min).
To examine the direct effect of phloretin on hemolysis induced by bacterial culture supernatants, the hemolytic activities of bacterial culture supernatants pre-incubated with various concentrations of phloretin were determined as described above.

In data set [7] the test system is L. monocytogenes EGDe. Nature of the data set: Susceptibility assays (MIC, growth curve).
Data set [8] relates to hly. The data set is described as follows: Agar assay and β-galactosidase activity analysis (phly-lacZ). Type of data set: cell-based, Listeria monocytogenes. To be noted: phly-lacZ-containing bacteria; agar assay 0–116.68 μM and β-galactosidase activity. As for the experimental part:
The phly-lacZ plasmid was a kind gift from Dr. Birgitte Kallipolitis (University of Southern Denmark) and was electroporated into EGDe cells to perform an agar assay as described previously (Kastbjerg et al., [2010]). A 25-ml aliquot of TSB agar was melted at 44°C and supplemented with X-gal (150 μg/ml) and kanamycin (50 μg/ml) before being thoroughly mixed with 1 ml of an overnight culture of bacteria containing the phly-lacZ plasmid. Nine wells were made per plate following desiccation in Class II biosafety cabinet at room temperature. A 30-μl aliquot of phloretin or benzalkonium bromide at varying concentrations was added to each well. The plates were incubated for 48 h at 37°C. The β-galactosidase activities of the phly-lacZ-containing bacteria treated with various concentrations of phloretin were quantitatively determined as previously described (Larsen et al., [2006]).

Data set [9] addresses T2, WT-SrtA (Listeria monocytogenes serovar 1/2a, UniProt Q8Y8H5). The data set is described as follows: Fluorescence-quenching binding constant (WT-SrtA). Set-up: GST (inferred from vector pGEX-6P-1) (N); made in house. As for the experimental part:
(§2) The binding constant (KA) for phloretin with SrtA was measured using a fluorescence-quenching method. A 280-nm excitation wavelength with a 5-nm band-pass and a 345-nm emission wavelength with a 10-nm band-pass were used for the measurements. The details of the protocol used to perform the measurements were as previously described (Bandyopadhyay et al., [2002]; Jurasekova et al., [2009]).

Data set [10] addresses T3, T90A (Listeria monocytogenes serovar 1/2a, UniProt Q8Y8H5, T162A).
T3 construct: GST (inferred from vector pGEX-6P-1) (N); made in house
Nature of the data set: Fluorescence-quenching binding constant (T90A). Particulars: fluorescence-quenching spectroscopy, read-out: binding constant KA (converted). As to the method: as §2

Data set [11] deals with T4, I103A (Listeria monocytogenes serovar 1/2a, UniProt Q8Y8H5, I175A).
T4 construct: GST (inferred from vector pGEX-6P-1) (N); made in house
T4 sequence (Q8Y8H5 71-222 I175A): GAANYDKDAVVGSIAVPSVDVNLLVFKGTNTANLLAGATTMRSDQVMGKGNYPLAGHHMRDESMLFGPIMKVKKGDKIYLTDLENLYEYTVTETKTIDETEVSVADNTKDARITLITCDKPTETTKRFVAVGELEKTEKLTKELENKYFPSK
Nature of the data set: Fluorescence-quenching binding constant (I103A). Particulars: fluorescence-quenching spectroscopy, read-out: binding constant KA (converted). As for the experimental part:
as §2

Data set [12] addresses T5, V129A (Listeria monocytogenes serovar 1/2a, UniProt Q8Y8H5, V201A).
T5 construct: GST (inferred from vector pGEX-6P-1) (N); made in house
Nature of the data set: Fluorescence-quenching binding constant (V129A). Particulars: fluorescence-quenching spectroscopy, read-out: binding constant KA (converted). As to the method: as §2

Data set [13] in a line: Toxicity of phloretin in healthy (uninfected) mice. Type of data set: in vivo, BALB/c mice. As for the experimental part:
(§3) Overnight cultures of L. monocytogenes were enlarged by culturing into fresh TSB (1:100) at 37°C with shaking until the OD at 600 nm reached 1.0, at which point they were harvested. The cell pellets were washed and suspended in normal saline. To establish an infection model, 200 μL prepared bacterial suspension (1 × 10^8 CFU/ml) was intraperitoneally inoculated into BALB/c mice. The infected mice in the treatment group were subcutaneously administered 150 mg/kg of phloretin 2 h after infection and again at 8-h intervals. The infected mice in the […] group were injected with an equal volume of dimethyl sulfoxide (DMSO) at the same time points. Finally, a group of healthy mice received only phloretin to examine the toxicity of the drug. Each group had 10 mice, and the therapeutic trial lasted for 96 h; survival statistics were collected throughout this period.
(§4) For histopathologic analysis, the mice were euthanized with anesthesia following cervical dislocation at 48 h post-infection. Liver and spleen tissues were removed, fixed with formalin, embedded in paraffin, stained with hematoxylin and eosin and visualized by light microscopy. To analyze the bacterial burden in tissue, the liver and spleen tissues collected from the sacrificed mice were weighed, lysed in 2% Triton X-100 and inoculated onto TSB agar plates at 37°C overnight.

For data set [14], the system named is L. monocytogenes. The data set is described as follows: Mouse model of L. monocytogenes infection. In kind it is in vivo, BALB/c mice. As for the experimental part: Female 6- to 8-week-old BALB/c mice were purchased from Liao Ning Chang Sheng Biotechnology Co., LTD. The mice used for the experiments were housed and handled in accordance with the guidelines established by the United States National Institutes of Health. These studies were reviewed and approved by the Institutional Animal Care and Use Committee of Jilin University.
as §3, §4

The target of data set [15] is T2, WT-SrtA. Nature of the data set: Sortase A enzyme activity inhibition assay (WT-SrtA).
Protocol: Following another incubation at 37°C for 1 h, the fluorescence intensity of each sample was determined at emission and excitation wavelengths of 350 and 520 nm, respectively, in a black 96-well plate.

The source of these data is PMC5244253, “Phloretin Attenuates Listeria monocytogenes Virulence Both In vitro and In vivo by Simultaneously Targeting Listeriolysin O and Sortase A” (Frontiers in Cellular and Infection Microbiology, 2017).

pIC50, pKd: −log10 of the molar value. Values after ≈ are worked out from the molar mass of the structure shown. Like-named read-outs stand apart in the source and are kept apart here.

T2 sequence (Q8Y8H5 71-222): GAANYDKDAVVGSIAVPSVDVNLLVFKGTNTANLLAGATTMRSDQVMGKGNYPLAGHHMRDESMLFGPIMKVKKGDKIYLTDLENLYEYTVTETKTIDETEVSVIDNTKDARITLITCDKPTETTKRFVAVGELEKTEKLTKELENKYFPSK
T1 sequence (P13128 25-529): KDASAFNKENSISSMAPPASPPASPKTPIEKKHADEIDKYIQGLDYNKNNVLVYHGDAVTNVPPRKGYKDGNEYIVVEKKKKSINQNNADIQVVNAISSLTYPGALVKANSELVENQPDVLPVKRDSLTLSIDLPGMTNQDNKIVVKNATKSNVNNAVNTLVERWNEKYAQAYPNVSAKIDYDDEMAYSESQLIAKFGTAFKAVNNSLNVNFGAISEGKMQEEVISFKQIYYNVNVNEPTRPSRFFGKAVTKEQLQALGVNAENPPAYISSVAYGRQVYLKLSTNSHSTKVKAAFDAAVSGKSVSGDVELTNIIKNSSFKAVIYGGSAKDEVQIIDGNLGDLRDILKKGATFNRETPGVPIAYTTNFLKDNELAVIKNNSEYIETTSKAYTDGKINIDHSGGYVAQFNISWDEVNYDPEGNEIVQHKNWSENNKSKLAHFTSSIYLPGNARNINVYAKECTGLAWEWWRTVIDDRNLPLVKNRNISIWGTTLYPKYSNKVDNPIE
T3 sequence (Q8Y8H5 71-222 T162A): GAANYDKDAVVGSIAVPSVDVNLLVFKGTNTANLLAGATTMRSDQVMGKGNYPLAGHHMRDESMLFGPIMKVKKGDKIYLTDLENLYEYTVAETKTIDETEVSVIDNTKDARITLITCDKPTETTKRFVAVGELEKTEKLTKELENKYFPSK
T5 sequence (Q8Y8H5 71-222 V201A): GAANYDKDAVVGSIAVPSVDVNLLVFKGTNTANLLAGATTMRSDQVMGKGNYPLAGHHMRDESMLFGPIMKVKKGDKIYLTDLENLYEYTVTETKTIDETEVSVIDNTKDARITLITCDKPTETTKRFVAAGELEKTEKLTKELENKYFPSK

Regarding `O=c1c(O)c(-c2ccc(O)c(O)c2)oc2cc(O)ccc12` [fisetin], in data set [1] (inhibitor of LLO, ref Wang et al., 2015a), the “protection against L. monocytogenes infection in vitro and in vivo” value was “robust protection”.
Broadly, the MIC is the smallest concentration in the dilution series that meets the test's criterion for growth inhibition. One may read the pKd as the Kd on a negative log10 scale, so that one unit is a factor of ten. Low readings indicate a high Kd, high ones a low Kd. The term pIC50 denotes the IC50 on a negative log10 scale, so that one unit is a factor of ten. Low readings indicate a high IC50, high ones a low IC50. Take `O=C(CCc1ccc(O)cc1)c1c(O)cc(O)cc1O` [phloretin]: in data set [2], the “LDH release of EGDe-infected Caco-2 cells” value is reported as “decreased LDH release”. In data set [3], the “invasion of EGDeΔsrtA (CFU assay)” value is recorded as “no difference was observed”. Moreover, the “LLO levels in bacterial culture supernatants and cell pellets” value in [4] was “reduced in a concentration-dependent manner”. In addition, the “cytotoxicity in Caco-2 cells” value in data set [5] is recorded as “did not significantly induce cytotoxicity”. Moreover, the “hemolytic activities of culture supernatants of L. monocytogenes EGDe cells after co-culture” value in [6] (co-culture with phloretin 7.3–58.34 μM, rabbit erythrocytes) was “dose-dependently decreased”. In addition, the “hemolytic activities of bacterial culture supernatants after direct pre-incubation” value in [6] (supernatants pre-incubated with various concentrations of phloretin) was “did not affect the hemolytic activities”. Besides, the minimal inhibitory concentration (MIC) in [7] (Listeria monocytogenes) came to 933 µM (≈ 256 µg/mL). In addition, the “growth of L. monocytogenes” value in [7] (at the concentrations required for inhibition of LLO expression and SrtA catalytic activity, OD 600 nm) is given as “not apparently affected”. Also, the transcription of hly result in data set [8] is reported as “did not affect the transcription of hly”. Besides, in data set [9], the pKd was 4.90. The Kd is 17.5 µM in data set [10], 17.2 µM in data set [11] and 20.1 µM in data set [12]. For the same compound, in data set [13] (150 mg/kg s.c. at 8-h intervals, 96 h), the “survival of mice treated only with phloretin, not infected” value is reported as “all survived”. In addition, in data set [13] (liver and spleen), the “pathological changes in uninfected mice treated with phloretin” value is reported as “no pathological changes were observed”. Also, the “infected mice that had died by 96 h post-infection” value in data set [14] (2 × 10^7 CFUs i.p. per mouse, phloretin 150 mg/kg s.c. 2 h after infection and at 8-h intervals) is listed as 25%. Also, the “gross pathological changes in liver and spleen of infected mice” value in data set [14] (48 h post-infection) was “clearly ameliorated”. Also, the “histopathology (inflammatory lesions) in infected mice” value in [14] (48 h post-infection, liver and spleen sections) is reported as “only minor inflammatory lesions”. The “numbers of viable bacteria colonized in the livers and spleens” value in data set [14] (48 h post-infection, vs infected mice treated with DMSO) was “significantly lower”. Moreover, in [14] (phloretin 150 mg/kg s.c., 96 h), the “survival rate vs control group treated with DMSO” value is given as “significantly higher survival rate”. The compound further showed a pIC50 in data set [15] of 4.43.
Take `O=C(/C=C/c1ccccc1)c1ccccc1` [chalcone]: the “protection against L. monocytogenes infection in vitro and in vivo” value in [1] (inhibitor of SrtA, ref Li et al., 2016) is recorded as “robust protection”.
